Experimental data published in the NIST ThermoML archive (doi:10.1021/je3009304).
± gives the expanded uncertainty stated by the source.

Details: Liquid

FC(F)=C(F)C(F)(F)F [hexafluoropropene]
Details | mass density [kg/m3]
208.66 K, 4440.7 kPa, isochoric method | 1666.3 ± 1.6
212.77 K, 9785.5 kPa, isochoric method | 1665.7 ± 1.6
217.15 K, 15655 kPa, isochoric method | 1665.1 ± 1.6
220.5 K, 19878 kPa, isochoric method | 1664.7 ± 1.6
220.7 K, 1017.1 kPa, isochoric method | 1618 ± 1.6
221.58 K, 1995.2 kPa, isochoric method | 1617.9 ± 1.6
222.5 K, 3032.3 kPa, isochoric method | 1617.8 ± 1.6
223.26 K, 3878.8 kPa, isochoric method | 1617.7 ± 1.6
224.31 K, 5176.5 kPa, isochoric method | 1617.5 ± 1.6
224.32 K, 25024 kPa, isochoric method | 1664.2 ± 1.6
228.25 K, 29978 kPa, isochoric method | 1663.7 ± 1.6
228.76 K, 10104 kPa, isochoric method | 1616.9 ± 1.6
232.02 K, 34664 kPa, isochoric method | 1663.2 ± 1.6
233.17 K, 15012 kPa, isochoric method | 1616.4 ± 1.6
236.26 K, 39771 kPa, isochoric method | 1662.7 ± 1.6
237.66 K, 1075 kPa, isochoric method | 1560.8 ± 1.6
237.67 K, 20020 kPa, isochoric method | 1615.8 ± 1.6
238.62 K, 2000 kPa, isochoric method | 1560.7 ± 1.6
239.74 K, 3075.4 kPa, isochoric method | 1560.5 ± 1.6
240.8 K, 4091.1 kPa, isochoric method | 1560.4 ± 1.6
241.91 K, 5150.8 kPa, isochoric method | 1560.2 ± 1.6
241.95 K, 25034 kPa, isochoric method | 1615.3 ± 1.6
247.02 K, 10041 kPa, isochoric method | 1559.6 ± 1.6
247.52 K, 30945 kPa, isochoric method | 1614.6 ± 1.6
251.36 K, 35209 kPa, isochoric method | 1614.2 ± 1.6
252.41 K, 1004.8 kPa, isochoric method | 1507.5 ± 1.6
252.51 K, 15276 kPa, isochoric method | 1559 ± 1.6
253.78 K, 2142.1 kPa, isochoric method | 1507.3 ± 1.6
254.97 K, 3117.5 kPa, isochoric method | 1507.2 ± 1.6
255.93 K, 40226 kPa, isochoric method | 1613.6 ± 1.6
256.1 K, 4061.6 kPa, isochoric method | 1507 ± 1.6
257.5 K, 5226.1 kPa, isochoric method | 1506.9 ± 1.6
257.54 K, 20028 kPa, isochoric method | 1558.4 ± 1.6
262.84 K, 25067 kPa, isochoric method | 1557.8 ± 1.6
268.15 K, 30042 kPa, isochoric method | 1557.2 ± 1.6
269.46 K, 1140.2 kPa, isochoric method | 1444.5 ± 1.6
269.51 K, 15216 kPa, isochoric method | 1506 ± 1.6
270.71 K, 2007.3 kPa, isochoric method | 1444.3 ± 1.6
272.14 K, 2994.8 kPa, isochoric method | 1444.2 ± 1.6
273.5 K, 34978 kPa, isochoric method | 1556.7 ± 1.6
273.87 K, 4188.8 kPa, isochoric method | 1444 ± 1.6
275.36 K, 5220.9 kPa, isochoric method | 1443.8 ± 1.6
275.38 K, 20012 kPa, isochoric method | 1505.4 ± 1.6
278.75 K, 39847 kPa, isochoric method | 1556.1 ± 1.6
281.62 K, 25020 kPa, isochoric method | 1504.3 ± 1.6
282.66 K, 10250 kPa, isochoric method | 1443.1 ± 1.6
282.84 K, 1039.3 kPa, isochoric method | 1388.2 ± 1.5
284.56 K, 2050.1 kPa, isochoric method | 1388.1 ± 1.5
286.25 K, 2995.1 kPa, isochoric method | 1387.9 ± 1.5
287.65 K, 30072 kPa, isochoric method | 1504.2 ± 1.6
287.98 K, 4010.4 kPa, isochoric method | 1387.7 ± 1.5
289.44 K, 14959 kPa, isochoric method | 1442.4 ± 1.6
289.66 K, 4997.4 kPa, isochoric method | 1387.6 ± 1.5
294.12 K, 35270 kPa, isochoric method | 1503.5 ± 1.6
296.97 K, 20036 kPa, isochoric method | 1441.7 ± 1.6
297.23 K, 942.2 kPa, isochoric method | 1322 ± 1.5
298.15 K, 2000 kPa, Pycnometric method | 1326.6 ± 1.3
298.15 K, 10003 kPa, isochoric method | 1386.8 ± 1.5
299.3 K, 1958.7 kPa, isochoric method | 1321.8 ± 1.5
300.38 K, 40273 kPa, isochoric method | 1502.9 ± 1.6
301.47 K, 3021.5 kPa, isochoric method | 1321.6 ± 1.5
303.44 K, 3963.5 kPa, isochoric method | 1321.4 ± 1.5
304.43 K, 25120 kPa, isochoric method | 1441 ± 1.6
305.51 K, 4983.5 kPa, isochoric method | 1321.2 ± 1.5
307 K, 15256 kPa, isochoric method | 1385.9 ± 1.5
311.59 K, 29972 kPa, isochoric method | 1440.3 ± 1.6
315.78 K, 2033.9 kPa, isochoric method | 1237.1 ± 1.5
315.78 K, 9999.6 kPa, isochoric method | 1320.4 ± 1.5
315.78 K, 20405 kPa, isochoric method | 1385.1 ± 1.5
317.54 K, 2708.8 kPa, isochoric method | 1237 ± 1.5
319.05 K, 35044 kPa, isochoric method | 1439.6 ± 1.6
320.92 K, 3993.8 kPa, isochoric method | 1236.7 ± 1.5
323.55 K, 4999.4 kPa, isochoric method | 1236.5 ± 1.5
324.09 K, 25251 kPa, isochoric method | 1384.4 ± 1.5
326.52 K, 40028 kPa, isochoric method | 1438.9 ± 1.6
326.95 K, 15464 kPa, isochoric method | 1319.4 ± 1.5
332.97 K, 30410 kPa, isochoric method | 1383.6 ± 1.5
335.66 K, 19726 kPa, isochoric method | 1318.7 ± 1.5
336.51 K, 9979.8 kPa, isochoric method | 1235.5 ± 1.5
340.74 K, 34883 kPa, isochoric method | 1382.9 ± 1.5
345.95 K, 24723 kPa, isochoric method | 1317.8 ± 1.5
352.67 K, 41719 kPa, isochoric method | 1381.9 ± 1.5
353.15 K, 16419 kPa, isochoric method | 1234.2 ± 1.5
353.15 K, 28219 kPa, isochoric method | 1317.2 ± 1.5

C=C(F)C(F)(F)F [2,3,3,3-tetrafluoro-1-propene]
Details | mass density [kg/m3]
217.44 K, 14681 kPa, isochoric method | 1363.7 ± 1.3
218.27 K, 962.6 kPa, isochoric method | 1333.8 ± 1.3
219.23 K, 2020.3 kPa, isochoric method | 1333.7 ± 1.3
220.22 K, 3106.5 kPa, isochoric method | 1333.6 ± 1.3
221.18 K, 4140.3 kPa, isochoric method | 1333.5 ± 1.3
221.97 K, 20077 kPa, isochoric method | 1363.2 ± 1.3
222.06 K, 5097 kPa, isochoric method | 1333.4 ± 1.3
226.65 K, 10087 kPa, isochoric method | 1332.9 ± 1.3
226.93 K, 25988 kPa, isochoric method | 1362.7 ± 1.3
230.27 K, 29902 kPa, isochoric method | 1362.4 ± 1.3
231.25 K, 15017 kPa, isochoric method | 1332.4 ± 1.3
231.72 K, 1001.1 kPa, isochoric method | 1298.5 ± 1.3
232.84 K, 2093.9 kPa, isochoric method | 1298.4 ± 1.3
233.76 K, 2987 kPa, isochoric method | 1298.2 ± 1.3
234.77 K, 35121 kPa, isochoric method | 1361.9 ± 1.3
234.92 K, 4113.3 kPa, isochoric method | 1298.2 ± 1.3
236.02 K, 20027 kPa, isochoric method | 1332 ± 1.3
236.13 K, 5205.1 kPa, isochoric method | 1298 ± 1.3
240.49 K, 24777 kPa, isochoric method | 1331.5 ± 1.3
241.06 K, 10038 kPa, isochoric method | 1297.5 ± 1.3
245.59 K, 30165 kPa, isochoric method | 1331 ± 1.3
246.22 K, 14993 kPa, isochoric method | 1297.1 ± 1.3
250.28 K, 35113 kPa, isochoric method | 1330.6 ± 1.3
251.43 K, 19983 kPa, isochoric method | 1296.6 ± 1.3
251.62 K, 971.2 kPa, isochoric method | 1243.5 ± 1.2
252.83 K, 1949.3 kPa, isochoric method | 1243.4 ± 1.2
254.25 K, 3101.8 kPa, isochoric method | 1243.3 ± 1.2
254.96 K, 39964 kPa, isochoric method | 1330.1 ± 1.3
255.48 K, 4096.7 kPa, isochoric method | 1243.2 ± 1.2
256.7 K, 5077.8 kPa, isochoric method | 1243.1 ± 1.2
256.72 K, 25008 kPa, isochoric method | 1296.1 ± 1.3
261.89 K, 29860 kPa, isochoric method | 1295.6 ± 1.3
262.98 K, 10262 kPa, isochoric method | 1242.5 ± 1.2
267.49 K, 35084 kPa, isochoric method | 1295.1 ± 1.3
269.01 K, 15092 kPa, isochoric method | 1242 ± 1.2
269.39 K, 1033.4 kPa, isochoric method | 1191.1 ± 1.2
270.88 K, 2044.5 kPa, isochoric method | 1190.9 ± 1.2
272.34 K, 3041.1 kPa, isochoric method | 1190.8 ± 1.2
272.52 K, 39731 kPa, isochoric method | 1294.7 ± 1.3
273.79 K, 4025.5 kPa, isochoric method | 1190.7 ± 1.2
275.28 K, 5036.3 kPa, isochoric method | 1190.6 ± 1.2
275.31 K, 20033 kPa, isochoric method | 1241.4 ± 1.2
282.03 K, 25427 kPa, isochoric method | 1240.8 ± 1.2
282.83 K, 10183 kPa, isochoric method | 1189.9 ± 1.2
282.95 K, 1036 kPa, isochoric method | 1147.5 ± 1.2
284.62 K, 2015.3 kPa, isochoric method | 1147.4 ± 1.2
286.31 K, 3030.5 kPa, isochoric method | 1147.2 ± 1.2
287.71 K, 29892 kPa, isochoric method | 1240.4 ± 1.2
287.89 K, 3962.5 kPa, isochoric method | 1147.1 ± 1.2
289.95 K, 15007 kPa, isochoric method | 1189.4 ± 1.2
289.99 K, 5188 kPa, isochoric method | 1146.9 ± 1.2
294.1 K, 34879 kPa, isochoric method | 1239.8 ± 1.2
297.11 K, 19748 kPa, isochoric method | 1188.8 ± 1.2
297.15 K, 1034.7 kPa, isochoric method | 1097.2 ± 1.2
298.15 K, 2000 kPa, Pycnometric method | 1101.34 ± 1
298.15 K, 9991.7 kPa, isochoric method | 1146.3 ± 1.2
299.15 K, 2029.1 kPa, isochoric method | 1097.1 ± 1.2
300.61 K, 39892 kPa, isochoric method | 1239.3 ± 1.2
301.16 K, 3031.3 kPa, isochoric method | 1096.9 ± 1.2
303.02 K, 3977.9 kPa, isochoric method | 1096.8 ± 1.2
304.9 K, 24929 kPa, isochoric method | 1188.2 ± 1.2
305.47 K, 5182.3 kPa, isochoric method | 1096.6 ± 1.2
306.32 K, 14776 kPa, isochoric method | 1145.7 ± 1.2
312.45 K, 29920 kPa, isochoric method | 1187.5 ± 1.2
315.08 K, 9982 kPa, isochoric method | 1095.9 ± 1.2
315.09 K, 19876 kPa, isochoric method | 1145 ± 1.2
315.95 K, 2247.5 kPa, isochoric method | 1032.9 ± 1.2
317.45 K, 2859.3 kPa, isochoric method | 1032.8 ± 1.2
320.1 K, 34906 kPa, isochoric method | 1187 ± 1.2
320.32 K, 4014.4 kPa, isochoric method | 1032.6 ± 1.2
322.67 K, 4967.1 kPa, isochoric method | 1032.4 ± 1.2
323.87 K, 24958 kPa, isochoric method | 1144.4 ± 1.2
325.07 K, 14981 kPa, isochoric method | 1095.2 ± 1.2
325.16 K, 5973.9 kPa, isochoric method | 1032.3 ± 1.2
327.9 K, 39962 kPa, isochoric method | 1186.4 ± 1.2
332.6 K, 29948 kPa, isochoric method | 1143.7 ± 1.2
335.17 K, 2008.9 kPa, isochoric method | 935 ± 1.2
335.17 K, 19964 kPa, isochoric method | 1094.5 ± 1.2
335.18 K, 10007 kPa, isochoric method | 1031.6 ± 1.2
338.63 K, 3007.2 kPa, isochoric method | 934.8 ± 1.2
341.49 K, 35032 kPa, isochoric method | 1143.1 ± 1.2
342.03 K, 3976.9 kPa, isochoric method | 934.7 ± 1.2
345.34 K, 25002 kPa, isochoric method | 1093.8 ± 1.2
345.42 K, 4963.5 kPa, isochoric method | 934.5 ± 1.2
347.2 K, 14893 kPa, isochoric method | 1030.8 ± 1.2
350.33 K, 40033 kPa, isochoric method | 1142.5 ± 1.2
353.14 K, 28869 kPa, isochoric method | 1093.3 ± 1.2
353.15 K, 7224.7 kPa, isochoric method | 934 ± 1.2
353.15 K, 17361 kPa, isochoric method | 1030.5 ± 1.2
